Measured values: patent publication US10501462B2, “Pyrrolo[3,2-c]pyridine-6-amino derivatives” (CANCER RESEARCH TECHNOLOGY LIMITED, priority 2015, dated 2019)
Read-outs that look alike come from different tables or passages of the source.

Assays:
HCT116 cells = experiment: MTT cell toxicity assay; type: cell-based; details: Homo sapiens, HCT-116, 72 h incubation
Method: Cell proliferation assays were carried out using a colorimetric 3-(4,5-dimethylthiazol-2-yl)-2,5-diphenyltetrazolium bromide (MTT) assay (Sigma). 1.5×10^3 HCT116 cells, purchased from ATCC, were plated in 96-well plates at in 100 μL of culture medium in triplicates. Next day three fold dilutions of the compounds to be tested were made in culture medium so that, when diluted, the final concentration in the wells ranged from 0 to 10 μM. 25 μL of compounds dilutions in the medium was added to 100 μL of cells and incubated at 37° C. and 5% CO2 for 72 h. Cells were then incubated with 40 μL of 5 mg/mL MTT reagent at 37° C. for 3 h. The medium was carefully removed and crystals dissolved in 100 μL of DMSO. The absorbance was measured at 570 nm with the Wallac VICTOR2 1420 Multilabel Counter (PerkinElmer) and analysis performed to calculate the GI50 using GraphPad PRISM.

[1] = Human liver microsomal stability (HLM assay); type: in vitro ADME; details: human liver microsomes 1 mg/mL, 10 μmol/L test compound, 37° C.
Method: The human liver microsomal stability of the compounds of the invention was tested using the following procedure:
Mixed gender pooled human liver microsomes were purchased from Tebu-bio (Peterborough, U.K.). Samples contained final concentrations of 1 mg/mL microsomal protein, 3 mmol/L MgCl2, 1 mmol/L NADPH, 2.5 mmol/L, UDP-glucuronic acid, and 10 mmol/L phosphate buffer (pH 7.4) (all purchased from Sigma Aldrich, Gilingham, U.K). Reactions, at 37° C., were started by addition of 10 μmol/L test compound and were terminated at 0, 15 and 30 minutes by the addition of 3 volumes of ice-cold methanol containing internal standard. Samples were centrifuged at 2,800×g for 30 minutes at 4° C. and the supernatants analyzed. Control incubations were prepared as above with omission of cofactors. […]

[2] = Pharmacokinetic profile in mice (Mouse PK); type: in vivo; details: female, BALB/c, whole blood, 5 mg/kg, i.v. and p.o. at 5 mg/kg
Method: The pharmacokinetic profile of the compounds of the invention was assessed using the following procedure:
Female BALB/c mice (approximately 8 weeks old) from Charles River UK Ltd. (Margate, United Kingdom) were kept in a controlled environment with food and sterilized water available ad libitum. Animals weighed 20±3 g at the time of experiment. Dosing solutions were prepared by dissolving the compounds in 10% DMSO, 5% Tween 20 and 85% saline. The compounds were administered i.v. and p.o. at 5 mg/kg. Animals were warmed before receiving a single i.v. bolus injection into a lateral tail vein. P.o. administration was by gavage. Control animals received the vehicle alone. Groups of three mice were injected per dose route. Blood was collected at 5, 15 and 30 minutes and at 1, 2, 4 and 6 and 24 hours by serial sampling from the tail vein of individual mice after warming using sodium heparin-coated capillaries and 20 μl blood spotted onto Whatman FTA DMPK-B cards.
Calibration standards and QCs were prepared in tail vein blood. 20 μl blood spotted onto Whatman FTA DMPK-B cards. When dry, all standard, QC and sample spots were punched with a Harris Unicore 6 mm punch and 200 μl of methanol containing internal standard was added. Samples were centrifuged for 5 minutes and supernatant taken for analysis by LC-MS. […]

full length Mps1 = target: T1, full length Mps1 (Homo sapiens, UniProt P33981); experiment: Measurement of inhibition of Mps1 kinase (Caliper EZ reader, H236 peptide); type: biochemical; details: full length Mps1, 60 min at room temperature
T1 construct: black 384-well low volume plates containing full length Mps1 (12.5 nM or 3 nM)
T1 sequence (P33981 1-857): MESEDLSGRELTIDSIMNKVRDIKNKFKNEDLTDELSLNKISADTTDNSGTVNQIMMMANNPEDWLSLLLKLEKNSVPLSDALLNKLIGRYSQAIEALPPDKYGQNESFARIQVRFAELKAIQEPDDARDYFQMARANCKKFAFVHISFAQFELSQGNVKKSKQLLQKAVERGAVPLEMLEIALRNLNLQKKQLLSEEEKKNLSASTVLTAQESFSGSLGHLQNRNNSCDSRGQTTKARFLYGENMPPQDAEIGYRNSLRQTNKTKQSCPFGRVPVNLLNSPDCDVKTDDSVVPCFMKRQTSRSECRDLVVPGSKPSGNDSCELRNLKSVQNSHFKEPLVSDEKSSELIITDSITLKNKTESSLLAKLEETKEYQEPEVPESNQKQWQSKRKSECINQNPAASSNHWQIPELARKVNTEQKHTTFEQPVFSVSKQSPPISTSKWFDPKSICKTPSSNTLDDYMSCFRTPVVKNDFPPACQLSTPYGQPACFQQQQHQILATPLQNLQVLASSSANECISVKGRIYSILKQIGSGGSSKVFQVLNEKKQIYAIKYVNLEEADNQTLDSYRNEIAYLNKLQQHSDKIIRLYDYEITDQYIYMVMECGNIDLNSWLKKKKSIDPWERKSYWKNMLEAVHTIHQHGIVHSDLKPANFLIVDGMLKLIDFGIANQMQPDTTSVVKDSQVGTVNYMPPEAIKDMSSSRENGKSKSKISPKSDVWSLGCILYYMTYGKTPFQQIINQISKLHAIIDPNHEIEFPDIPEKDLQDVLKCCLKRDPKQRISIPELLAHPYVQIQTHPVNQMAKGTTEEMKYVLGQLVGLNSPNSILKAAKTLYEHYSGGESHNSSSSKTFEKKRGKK
Method: The enzyme reaction (total volume 10 μl) was carried out in black 384-well low volume plates containing full length Mps1 (12.5 nM or 3 nM), fluorescent labelled peptide [known as H236, which has the sequence: 5FAM-[…]-CONH2] (5 μM), ATP ([…]), either DMSO (1% v/v) or the test compound (in the range 0.25 nM-100 μM in 1% DMSO) and assay buffer (50 mM HEPES (pH 7.0), 0.02% NaN3, 0.01% BSA, 0.1 mM Orthovandate, […], […], Roche protease inhibitor). The reaction was carried out for 60 min at room temperature and stopped by the addition of buffer (10 μl) containing 20 mM EDTA, 0.05% (v/v) Brij-35, in 0.1M HEPES-buffered saline (Free acid, Sigma, UK). The plate was read on a Caliper EZ reader II (Caliper Life Sciences).
The % inhibition of the compounds is calculated relative to the means of selected control wells. […] The % inhibitions at each concentration are then fitted to a 4 parameter logistic fit: y=(a+((b−a)/(1+((c/x^d)))) where a=asym min, b=asym max, c=IC50 and d=hill coefficient

[3] = read-out: MTT assay HCT116 GI50
[4] = read-out: GI50 in the MTT assay

## Cn1cc(C2=[N+](C(=O)OC(C)(C)C)c3cc(Nc4ccc(-c5nncn5C)cc4Cl)ncc3C2)cn1 [Comparator 1, reference compound]
HCT116 cells; [3]
  GI50: 0.359 µM
[1]
  HLM Assay (% of parent compound degraded at 30 minutes): 22.1%
[2]
  clearance: 5 mL/min/kg

## Cn1cc(C2=[N+](C(=O)OC(C)(C)C)c3cc(Nc4ccc(-c5ccnn5C)cc4Cl)ncc3C2)cn1 [Comparator 3, reference compound]
HCT116 cells; [3]
  GI50: 0.548 µM
[1]
  HLM Assay (% of parent compound degraded at 30 minutes): 39%

## COc1cc(-c2cnnn2C)ccc1Nc1cc2c(cn1)cc(-c1cnn(C)c1)n2C(=O)OC(C)C [Example 1, Isopropyl 6-(2-methoxy-4-(1-methyl-1H-1,2,3-triazol-5-yl)phenylamino)-2-(1-methyl-1H-pyrazol-4-yl)-1H-pyrrolo[3,2-c]pyridine-1-carboxylate]
Full length Mps1
  IC50: 0.0012 µM
HCT116 cells; [4]
  GI50: ≤ 0.15 µM
HCT116 cells; [3]
  GI50: 0.0594 µM
[2]
  clearance: < 3.5 mL/min/kg

## COc1cc(-c2nnnn2C)ccc1Nc1cc2c(cn1)cc(-c1cnn(C)c1)n2C(=O)OC(C)C [Example 2, Isopropyl 6-(2-methoxy-4-(1-methyl-1H-tetrazol-5-yl)phenylamino)-2-(1-methyl-1H-pyrazol-4-yl)-1H-pyrrolo[3,2-c]pyridine-1-carboxylate]
Full length Mps1
  IC50: 0.0028 µM
HCT116 cells; [4]
  GI50: ≤ 0.15 µM
HCT116 cells; [3]
  GI50: 0.104 µM
